Values of other authors in patent US8440723B2, “Metformin salts of salicylic acid and its congeners” (priority 2011, dated 2013).
Converted amounts (≈) assume the structure as drawn.

Key:
[1] = The Merck Index, Eleventh Edition
[2] = tested on: patients with type 2 diabetes

| volume of water in which 1 g is soluble ([1]; 1 g of substance) [mL] | water solubility [1] [µg/mL] | solubility in water (in words) [1] | SMILES | effect on blood glucose, HbA1c, triglycerides, free fatty acid and C-reactive protein [2] |
| --- | --- | --- | --- | --- |
| 460 | 2170 (≈ 15.7 mM) | – | O=C(O)c1ccccc1O [salicylic acid] | – |
| – | – | practically insoluble in water | O=C(Oc1ccccc1C(=O)O)c1ccccc1O [salsalate, 2-(2-hydroxybenzoyl)oxybenzoic acid] | lowers blood glucose, HbA1c levels, triglycerides, free fatty acid and C-reactive protein |
